Experimental data as given in patent publication US20240109848A1, “PROCESS FOR THE PREPARATION OF IMIDAZOBENZODIAZEPINES” (ODH IP Corp., priority 2022, published 2024).

Tests used:
[1] = for weight remaining of starting sample (TGA): heated at 200° C. for 50 minutes
Procedure: To test the stable ion-pair hypothesis, TGA of PTSA, midazolam, and their combined salt pair were heated at 200° C. for 50 minutes and their decomposition rates were compared (FIG. 13).

[2] = pH titration of the carboxylate with mother liquor analysis (solubility versus pH); type: physicochemical; details: pH values below 1, methanol/KOH saponification mixture titrated with acid
Procedure: Saponification of midazolam ethyl ester to the carboxylic acid was performed both in batch and flow, but poor solubility limited the throughput of a continuous manufacturing approach. Therefore, the reaction was run as a batch in a methanol/KOH solution. Much of the R&D on this process step revolved around the reactive crystallization of the carboxylic acid product. […] An initial screen was performed by titrating a batch of the carboxylate and analyzing the mother liquor at decreasing pH values to determine the pH value with the highest yield (FIG. 10).
The titration experiment determined that pH 5.5-6.0 would provide the highest yielding crystallization. At pH values lower than this, the solubility of the product increases again until it is fully soluble at pH values below 1. […] This was an attractive development as the ring open form had been previously reported to provide a purer decarboxylation. The ring quickly closes in neutral solvent, and the diastereomeric methylene resonances appear clearly between 4-6 ppm. […] To test this hypothesis, we performed […] batch reactions and crystallization at pH 1, and 5.5. The solid products were characterized by thermogravimetric analysis and ^1H NMR spectroscopy (FIGS. 11A and 11B).

[3] = LC-MS analysis of the TGA samples for thermal isomerization to isomidazolam; type: physicochemical; details: LC-MS of sample after TGA at 200° C. for 50 minutes

Molecule | weight remaining (TGA) ([1]; heated at 200° C., within 40 minutes of heating) | solubility of the product [2] | isomidazolam formed in TGA sample [3] | weight remaining of starting sample (TGA) [1]
Cc1ccc(S(=O)(=O)O)cc1 [PTSA, para-toluenesulfonic acid] | ~10 weight % |  |  | 
Cc1nc(C(=O)O)c2n1-c1ccc(Cl)cc1C(c1ccccc1F)=NC2 [Midazolam carboxylic acid, 8-chloro-6-(2-fluorophenyl)-1-methyl-4H-imidazo[1,5-a][1,4]benzodiazopine-3-carboxylic acid] |  | fully soluble |  | 
8-chloro-6-(2-fluorophenyl)-1-methyl-4H-imidazo[1,5-a][1,4]benzodiazopine [Midazolam, reference compound] |  |  | 12 % LCAP | 65 weight %
Cc1ccc(S(=O)(=O)O)cc1.Cc1ncc2n1-c1ccc(Cl)cc1C(c1ccccc1F)=NC2 [midazolam:PTSA pair] |  |  | 1 % LCAP | 90 weight %
